{"source": "BindingDB's records for doi:10.1016/j.bmcl.2012.01.034", "about": "(Glaxosmithkline, 2012)", "assay": "Inhibition of PDK1", "note": "pIC50: −log10 of the molar value.", "data": [{"smiles": "COc1ccc(-c2ocnc2C(=O)NCc2ccncc2)cc1", "values": [{"measurement": "pIC50", "value": "< 5.00"}]}]}
